Where a name gives a salt, the structure may show the parent alone.
What was measured:
PI3kδ = PI3kδ (Homo sapiens, UniProt O00329); test: Fluorescent (HTRF) determination of PI3 kinase enzyme activity, PI3Kδ; format: biochemical; details: for % inhibition (PI3kδ) 100 nM / inhibition at 0.1 µM: 100 nM (Examples 60-137); for % inhibition (PI3kδ) 100 nM: 0.1 µM; for inhibition at 0.3 µM: 300 nM (Examples 1-59)
Method in brief: (§1)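 Human PI3K isoforms were preincubated with compound for 10 min at room temperature in 10 mM MgCl2, 5 mM DTT, 1.38 μM PIP2, then reacted 30 min after adding 400 μM ATP stock. PIP3 was read by HTRF (665/620 nm). Percent inhibition used blank and enzyme controls; single-point testing was at 1 uM for α/β and 0.3 or 0.1 uM for γ/δ.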

PI3kγ = PI3kγ (Homo sapiens, UniProt P48736); test: Fluorescent (HTRF) determination of PI3 kinase enzyme activity, PI3Kγ; format: biochemical; details: for % inhibition (PI3kγ) 100 nM / inhibition at 0.1 µM: 100 nM (Examples 60-137); for inhibition at 0.3 µM: 300 nM (Examples 1-59)
Method in brief: as §1

PI3kα = PI3kα (Homo sapiens, UniProt P42336); test: Fluorescent (HTRF) determination of PI3 kinase enzyme activity, PI3Kα; format: biochemical; details: 1 uM
Method in brief: as §1

PI3kβ = PI3kβ (Homo sapiens, UniProt P42338); test: Fluorescent (HTRF) determination of PI3 kinase enzyme activity, PI3Kβ; format: biochemical; details: 1 uM
Method in brief: as §1

Chain of PI3kγ (P48736 whole entry): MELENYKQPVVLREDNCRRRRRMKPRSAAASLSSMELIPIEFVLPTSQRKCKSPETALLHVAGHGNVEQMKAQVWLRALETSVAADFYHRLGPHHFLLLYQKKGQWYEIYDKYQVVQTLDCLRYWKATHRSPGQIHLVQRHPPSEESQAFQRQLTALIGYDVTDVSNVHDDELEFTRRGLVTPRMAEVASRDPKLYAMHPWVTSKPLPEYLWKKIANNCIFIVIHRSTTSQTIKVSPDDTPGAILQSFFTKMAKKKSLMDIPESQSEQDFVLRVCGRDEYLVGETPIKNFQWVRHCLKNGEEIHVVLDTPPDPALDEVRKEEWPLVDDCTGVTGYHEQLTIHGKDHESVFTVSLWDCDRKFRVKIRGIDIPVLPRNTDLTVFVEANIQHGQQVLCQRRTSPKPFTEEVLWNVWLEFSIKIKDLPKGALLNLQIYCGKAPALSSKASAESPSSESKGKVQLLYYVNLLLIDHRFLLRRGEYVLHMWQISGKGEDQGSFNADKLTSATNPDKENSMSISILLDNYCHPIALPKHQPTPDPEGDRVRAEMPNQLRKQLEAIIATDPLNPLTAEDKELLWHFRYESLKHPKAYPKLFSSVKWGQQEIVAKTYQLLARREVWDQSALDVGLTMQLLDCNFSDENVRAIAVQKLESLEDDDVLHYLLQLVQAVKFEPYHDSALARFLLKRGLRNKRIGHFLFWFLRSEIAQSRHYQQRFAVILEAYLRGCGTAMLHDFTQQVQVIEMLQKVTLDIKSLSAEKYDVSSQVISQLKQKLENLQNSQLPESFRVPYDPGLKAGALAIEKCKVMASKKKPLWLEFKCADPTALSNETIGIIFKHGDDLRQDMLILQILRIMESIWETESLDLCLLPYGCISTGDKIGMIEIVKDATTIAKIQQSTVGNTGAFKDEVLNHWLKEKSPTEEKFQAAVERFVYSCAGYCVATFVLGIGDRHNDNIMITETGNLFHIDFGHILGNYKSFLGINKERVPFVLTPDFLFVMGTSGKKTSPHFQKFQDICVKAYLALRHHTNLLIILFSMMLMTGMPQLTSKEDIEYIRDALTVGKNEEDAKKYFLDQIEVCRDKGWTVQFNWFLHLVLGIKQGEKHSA
Chain of PI3kδ (O00329 whole entry, canonical isoform): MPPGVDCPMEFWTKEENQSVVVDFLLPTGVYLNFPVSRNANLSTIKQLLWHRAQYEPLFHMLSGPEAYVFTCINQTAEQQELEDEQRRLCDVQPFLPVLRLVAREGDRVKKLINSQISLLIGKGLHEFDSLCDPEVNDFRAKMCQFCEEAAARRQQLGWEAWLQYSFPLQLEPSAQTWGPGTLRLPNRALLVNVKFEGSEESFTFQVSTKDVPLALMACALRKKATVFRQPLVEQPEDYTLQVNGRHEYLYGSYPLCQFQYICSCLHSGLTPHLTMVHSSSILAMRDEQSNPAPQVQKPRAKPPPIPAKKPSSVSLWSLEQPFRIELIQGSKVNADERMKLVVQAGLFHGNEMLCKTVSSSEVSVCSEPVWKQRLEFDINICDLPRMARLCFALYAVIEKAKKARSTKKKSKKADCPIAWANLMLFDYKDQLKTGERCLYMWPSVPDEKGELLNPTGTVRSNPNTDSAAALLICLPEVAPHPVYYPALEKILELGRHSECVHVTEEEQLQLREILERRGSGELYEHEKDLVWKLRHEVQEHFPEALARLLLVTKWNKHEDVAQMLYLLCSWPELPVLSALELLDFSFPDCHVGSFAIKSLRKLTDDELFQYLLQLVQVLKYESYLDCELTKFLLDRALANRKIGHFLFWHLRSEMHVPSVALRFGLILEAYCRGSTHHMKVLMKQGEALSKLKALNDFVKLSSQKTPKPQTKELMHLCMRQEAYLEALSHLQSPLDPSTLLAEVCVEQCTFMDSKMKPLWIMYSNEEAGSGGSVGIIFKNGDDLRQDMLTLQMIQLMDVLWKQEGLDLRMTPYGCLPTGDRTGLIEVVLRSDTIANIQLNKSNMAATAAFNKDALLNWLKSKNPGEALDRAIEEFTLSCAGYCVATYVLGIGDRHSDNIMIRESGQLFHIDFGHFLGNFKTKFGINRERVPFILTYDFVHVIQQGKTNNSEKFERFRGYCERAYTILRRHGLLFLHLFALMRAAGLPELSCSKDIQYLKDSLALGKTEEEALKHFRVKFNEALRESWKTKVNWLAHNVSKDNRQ
Chain of PI3kδ (P27986 whole entry partner, canonical isoform): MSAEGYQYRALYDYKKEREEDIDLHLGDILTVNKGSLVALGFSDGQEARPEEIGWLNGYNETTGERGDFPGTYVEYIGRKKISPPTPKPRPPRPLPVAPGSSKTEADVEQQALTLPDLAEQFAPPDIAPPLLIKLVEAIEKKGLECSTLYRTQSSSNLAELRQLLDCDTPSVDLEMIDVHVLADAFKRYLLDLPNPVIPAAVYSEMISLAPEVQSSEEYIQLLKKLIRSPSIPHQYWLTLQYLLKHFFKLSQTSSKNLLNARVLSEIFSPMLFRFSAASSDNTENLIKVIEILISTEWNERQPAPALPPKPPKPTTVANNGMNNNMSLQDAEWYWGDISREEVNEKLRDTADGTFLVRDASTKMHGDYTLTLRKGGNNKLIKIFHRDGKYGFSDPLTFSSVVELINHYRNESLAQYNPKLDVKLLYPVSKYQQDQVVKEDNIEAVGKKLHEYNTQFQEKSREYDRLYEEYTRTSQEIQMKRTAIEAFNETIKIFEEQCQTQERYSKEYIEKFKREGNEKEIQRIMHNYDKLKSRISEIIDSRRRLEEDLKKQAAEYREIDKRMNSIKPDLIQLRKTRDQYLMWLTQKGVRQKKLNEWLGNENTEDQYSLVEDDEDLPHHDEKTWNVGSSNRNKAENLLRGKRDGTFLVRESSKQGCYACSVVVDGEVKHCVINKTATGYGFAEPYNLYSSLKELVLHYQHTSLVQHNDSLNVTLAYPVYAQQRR
Chain of PI3kβ (P42338 whole entry): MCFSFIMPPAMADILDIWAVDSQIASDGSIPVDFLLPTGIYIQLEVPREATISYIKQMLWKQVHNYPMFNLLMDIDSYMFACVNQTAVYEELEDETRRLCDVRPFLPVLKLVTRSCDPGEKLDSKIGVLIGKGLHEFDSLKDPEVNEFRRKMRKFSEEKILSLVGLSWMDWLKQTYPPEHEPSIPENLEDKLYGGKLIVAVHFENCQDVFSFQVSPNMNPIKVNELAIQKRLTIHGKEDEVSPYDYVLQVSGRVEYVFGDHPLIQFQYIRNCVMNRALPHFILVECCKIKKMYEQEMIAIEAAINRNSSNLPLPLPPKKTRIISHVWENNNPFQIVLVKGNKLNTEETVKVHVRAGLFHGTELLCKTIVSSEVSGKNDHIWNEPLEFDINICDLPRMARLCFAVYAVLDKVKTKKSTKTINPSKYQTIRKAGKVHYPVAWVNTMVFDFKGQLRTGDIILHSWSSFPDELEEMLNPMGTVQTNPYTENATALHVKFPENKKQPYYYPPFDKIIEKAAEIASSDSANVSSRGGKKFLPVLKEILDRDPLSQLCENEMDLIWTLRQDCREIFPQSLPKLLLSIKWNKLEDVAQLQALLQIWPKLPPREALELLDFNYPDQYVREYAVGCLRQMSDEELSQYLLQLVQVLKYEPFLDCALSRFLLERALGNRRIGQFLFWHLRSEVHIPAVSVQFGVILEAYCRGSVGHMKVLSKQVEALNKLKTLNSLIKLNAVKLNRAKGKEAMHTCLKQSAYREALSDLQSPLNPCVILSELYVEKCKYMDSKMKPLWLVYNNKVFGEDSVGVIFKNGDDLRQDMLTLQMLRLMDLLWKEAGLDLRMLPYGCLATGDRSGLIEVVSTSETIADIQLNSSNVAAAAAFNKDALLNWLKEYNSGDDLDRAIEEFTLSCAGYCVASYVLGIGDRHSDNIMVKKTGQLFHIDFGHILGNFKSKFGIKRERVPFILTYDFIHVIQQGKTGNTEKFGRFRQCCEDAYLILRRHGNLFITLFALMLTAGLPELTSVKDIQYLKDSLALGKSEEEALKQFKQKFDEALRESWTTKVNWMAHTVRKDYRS
Chain of PI3kβ (P27986 whole entry partner): as the sequence (P27986 whole entry partner, canonical isoform) above
Chain of PI3kα (P42336 whole entry): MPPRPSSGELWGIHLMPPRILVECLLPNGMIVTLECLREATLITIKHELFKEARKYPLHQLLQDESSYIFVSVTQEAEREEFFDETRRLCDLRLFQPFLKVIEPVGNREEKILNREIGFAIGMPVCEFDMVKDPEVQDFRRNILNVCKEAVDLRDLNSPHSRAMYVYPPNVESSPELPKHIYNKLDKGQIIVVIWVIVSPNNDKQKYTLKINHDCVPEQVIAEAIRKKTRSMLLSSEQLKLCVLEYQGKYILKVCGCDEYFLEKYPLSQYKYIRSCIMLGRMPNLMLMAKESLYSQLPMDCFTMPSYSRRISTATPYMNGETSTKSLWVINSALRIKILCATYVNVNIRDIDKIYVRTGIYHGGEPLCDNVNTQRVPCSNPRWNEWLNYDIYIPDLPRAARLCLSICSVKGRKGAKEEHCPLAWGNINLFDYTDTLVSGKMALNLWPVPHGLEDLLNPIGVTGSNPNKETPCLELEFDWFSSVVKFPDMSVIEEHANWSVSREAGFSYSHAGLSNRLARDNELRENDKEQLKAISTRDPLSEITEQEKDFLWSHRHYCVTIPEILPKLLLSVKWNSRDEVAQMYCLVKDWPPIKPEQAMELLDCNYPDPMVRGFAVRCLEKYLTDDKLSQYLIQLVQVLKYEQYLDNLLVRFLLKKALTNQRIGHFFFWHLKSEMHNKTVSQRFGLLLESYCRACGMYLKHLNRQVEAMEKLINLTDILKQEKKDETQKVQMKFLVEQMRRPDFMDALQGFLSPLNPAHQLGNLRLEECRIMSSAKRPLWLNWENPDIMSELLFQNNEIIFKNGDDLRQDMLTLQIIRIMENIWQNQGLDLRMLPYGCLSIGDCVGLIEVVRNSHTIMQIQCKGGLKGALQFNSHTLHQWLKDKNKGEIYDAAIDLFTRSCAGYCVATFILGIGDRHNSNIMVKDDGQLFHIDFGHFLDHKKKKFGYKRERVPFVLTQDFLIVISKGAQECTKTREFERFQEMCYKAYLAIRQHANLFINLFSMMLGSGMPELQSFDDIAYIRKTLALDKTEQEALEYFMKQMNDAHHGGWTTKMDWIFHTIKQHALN
Chain of PI3kα (P27986 whole entry partner): as the sequence (P27986 whole entry partner, canonical isoform) above

Row | SMILES | melting point | inhibition at 0.1 µM (PI3kδ) | inhibition at 0.1 µM (PI3kγ) | further results
1 | CC(c1oc2cccc(F)c2c(=O)c1-c1cccc(F)c1)n1cnc2c(N)nc(F)nc21 (centres unmarked) (as salt: potassium) [Example 106, 2-(1-(6-amino-2-fluoro-9H-purin-9-yl)ethyl)-5-fluoro-3-(3-fluorophenyl)-4H-chromen-4-one] | 255 to 258 °C | – | – | –
2 | Cc1cc(-c2nn(C(C)c3oc4cccc(F)c4c(=O)c3-c3cccc(F)c3)c3ncnc(N)c23)ccc1OC(C)C (centres unmarked) (as salt: sodium) [Example 50, 2-(1-(4-amino-3-(4-isopropoxy-3-methylphenyl)-1H-pyrazolo[3,4-d]pyrimidin-1-yl)ethyl)-5-fluoro-3-(3-fluorophenyl)-4H-chromen-4-one] | 185 to 188 °C | – | – | –
3 | C[C@H](c1oc2cccc(F)c2c(=O)c1-c1cccc(F)c1)n1ncc2c(N)ncnc21 [Example 16b, (−)-2-(1-(4-amino-1H-pyrazolo[3,4-d]pyrimidin-1-yl)ethyl)-5-fluoro-3-(3-fluorophenyl)-4H-chromen-4-one] | 198 to 201 °C | – | – | –
4 | CC(c1oc2cccc(F)c2c(=O)c1-c1cccc(F)c1)n1nc(-c2ccc(OC(F)(F)F)c(F)c2)c2c(N)ncnc21 (centres unmarked) [Example 45, 2-(1-(4-amino-3-(3-fluoro-4-(trifluoromethoxy)phenyl)-1H-pyrazolo[3,4-d]pyrimidin-1-yl)ethyl)-5-fluoro-3-(3-fluorophenyl)-4H-chromen-4-one] | 247 to 249 °C | – | – | inhibition at 0.3 µM (PI3kδ): 50 to 75%; inhibition at 0.3 µM (PI3kγ): 25 to 50%
5 | CC(c1oc2cccc(F)c2c(=O)c1-c1cccc(F)c1)n1nc(N2CCCC2)c2c(N)ncnc21 (centres unmarked) [Example 47, 2-(1-(4-amino-3-(pyrrolidin-1-yl)-1H-pyrazolo[3,4-d]pyrimidin-1-yl)ethyl)-5-fluoro-3-(3-fluorophenyl)-4H-chromen-4-one] | 203 to 205 °C | – | – | inhibition at 0.3 µM (PI3kδ): 0 to 25%; inhibition at 0.3 µM (PI3kγ): 0 to 25%
6 | CC(c1oc2cccc(F)c2c(=O)c1-c1cccc(F)c1)n1nc(-c2ccc(C3=NCCCO3)cc2)c2c(N)ncnc21 (centres unmarked) [Example 51, 2-(1-(4-amino-3-(4-(5,6-dihydro-4H-1,3-oxazin-2-yl)phenyl)-1H-pyrazolo[3,4-d]pyrimidin-1-yl)ethyl)-5-fluoro-3-(3-fluorophenyl)-4H-chromen-4-one] | 228 to 230 °C | – | – | inhibition at 0.3 µM (PI3kδ): 25 to 50%; inhibition at 0.3 µM (PI3kγ): 50 to 75%
7 | CC(C)NC(=O)c1ccc(-c2nn(C(C)c3oc4cccc(F)c4c(=O)c3-c3cccc(F)c3)c3ncnc(N)c23)cc1F (centres unmarked) [Example 53, 4-(4-amino-1-(1-(5-fluoro-3-(3-fluorophenyl)-4-oxo-4H-chromen-2-yl)ethyl)-1H-pyrazolo[3,4-d]pyrimidin-3-yl)-2-fluoro-N-isopropylbenzamide] | 254 to 257 °C | – | – | inhibition at 0.3 µM (PI3kδ): 0 to 25%; inhibition at 0.3 µM (PI3kγ): 50 to 75%
8 | CC(c1oc2cccc(F)c2c(=O)c1-c1cccc(F)c1)n1nc(-c2ccc(CNS(C)(=O)=O)cc2)c2c(N)ncnc21 (centres unmarked) [Example 55, N-(4-(4-amino-1-(1-(5-fluoro-3-(3-fluorophenyl)-4-oxo-4H-chromen-2-yl)ethyl)-1H-pyrazolo[3,4-d]pyrimidin-3-yl)benzyl)methanesulfonamide] | 252 to 255 °C | – | – | inhibition at 0.3 µM (PI3kδ): 25 to 50%; inhibition at 0.3 µM (PI3kγ): 50 to 75%
9 | CC(c1oc2cccc(F)c2c(=O)c1-c1cccc(F)c1)n1nc(-c2ccc(S(=O)(=O)NC3CC3)cc2)c2c(N)ncnc21 (centres unmarked) [Example 57, 4-(4-amino-1-(1-(5-fluoro-3-(3-fluorophenyl)-4-oxo-4H-chromen-2-yl)ethyl)-1H-pyrazolo[3,4-d]pyrimidin-3-yl)-N-cyclopropylbenzenesulfonamide] | 225 to 228 °C | – | – | inhibition at 0.3 µM (PI3kδ): 0 to 25%; inhibition at 0.3 µM (PI3kγ): 50 to 75%
10 | COc1c(C)cc(-c2nn(C(C)c3oc4cccc(F)c4c(=O)c3-c3cccc(F)c3)c3ncnc(N)c23)cc1C (centres unmarked) [Example 71, 2-(1-(4-amino-3-(4-methoxy-3,5-dimethylphenyl)-1H-pyrazolo[3,4-d]pyrimidin-1-yl)ethyl)-5-fluoro-3-(3-fluorophenyl)-4H-chromen-4-one] | 232 to 235 °C | 0 to 25% | 25 to 50% | –
11 | COCc1ccc(-c2nn(C(C)c3oc4cccc(F)c4c(=O)c3-c3cccc(F)c3)c3ncnc(N)c23)cc1 (centres unmarked) [Example 72, 2-(1-(4-amino-3-(4-(methoxymethyl)phenyl)-1H-pyrazolo[3,4-d]pyrimidin-1-yl)ethyl)-5-fluoro-3-(3-fluorophenyl)-4H-chromen-4-one] | 204 to 207 °C | 0 to 25% | 25 to 50% | –
12 | CC(c1oc2cccc(F)c2c(=O)c1-c1cccc(F)c1)n1nc(-c2ccc3nccn3c2)c2c(N)ncnc21 (centres unmarked) [Example 73, 2-(1-(4-amino-3-(imidazo[1,2-a]pyridin-6-yl)-1H-pyrazolo[3,4-d]pyrimidin-1-yl)ethyl)-5-fluoro-3-(3-fluorophenyl)-4H-chromen-4-one] | 317 to 320 °C | 25 to 50% | 25 to 50% | –
13 | Cc1nc(C)c(-c2nn(C(C)c3oc4cccc(F)c4c(=O)c3-c3cccc(F)c3)c3ncnc(N)c23)s1 (centres unmarked) [Example 75, 2-(1-(4-amino-3-(2,4-dimethylthiazol-5-yl)-1H-pyrazolo[3,4-d]pyrimidin-1-yl)ethyl)-5-fluoro-3-(3-fluorophenyl)-4H-chromen-4-one] | 252 to 255 °C | 25 to 50% | 0 to 25% | –
14 | CC(C)Oc1ccc(-c2nn(C(C)c3oc4cccc(F)c4c(=O)c3-c3cccc(F)c3)c3ncnc(N(C)C)c23)cc1F (centres unmarked) [Example 83, 2-(1-(4-(dimethylamino)-3-(3-fluoro-4-isopropoxyphenyl)-1H-pyrazolo[3,4-d]pyrimidin-1-yl)ethyl)-5-fluoro-3-(3-fluorophenyl)-4H-chromen-4-one] | 122 to 124 °C | 75 to 100% | 75 to 100% | IC50 (PI3kδ): ≤ 50 nM; IC50 (PI3kγ): ≤ 50 nM
15 | CNc1ncnc2c1c(-c1ccc(OC(C)C)c(F)c1)nn2C(C)c1oc2cccc(F)c2c(=O)c1-c1cccc(F)c1 (centres unmarked) [Example 84, 5-fluoro-2-(1-(3-(3-fluoro-4-isopropoxyphenyl)-4-(methylamino)-1H-pyrazolo[3,4-d]pyrimidin-1-yl)ethyl)-3-(3-fluorophenyl)-4H-chromen-4-one] | 193 to 196 °C | – | – | IC50 (PI3kδ): ≤ 50 nM; % inhibition (PI3kδ) 100 nM (PI3kδ): B (B=>50 to 75%); IC50 (PI3kγ): > 500 nM; % inhibition (PI3kγ) 100 nM (PI3kγ): C (C=>25 to 50%)

Now from value to molecule, other results behind:

Row | melting point | inhibition at 0.1 µM (PI3kδ) | inhibition at 0.1 µM (PI3kγ) | SMILES | further results
16 | 207 to 209 °C | – | – | CNc1ncnc2c1ncn2C(C)c1oc2cccc(F)c2c(=O)c1-c1cccc(F)c1 (centres unmarked) (as salt: potassium) [Example 111, 5-fluoro-3-(3-fluorophenyl)-2-(1-(6-(methylamino)-9H-purin-9-yl)ethyl)-4H-chromen-4-one] | –
17 | 239 to 241 °C | – | – | CC(c1oc2cccc(F)c2c(=O)c1-c1cccc(F)c1)n1cnc2c(N3CCOCC3)ncnc21 (centres unmarked) (as salt: potassium) [Example 119, 5-fluoro-3-(3-fluorophenyl)-2-(1-(6-morpholino-9H-purin-9-yl)ethyl)-4H-chromen-4-one] | –
18 | 136 to 138 °C | – | – | CC(C)Oc1ccc(-c2nn(C(C)c3oc4cccc(F)c4c(=O)c3-c3cccc(F)c3)c3ncnc(N4CCOCC4)c23)cc1F (racemic) [Example 116, (S)/(R)-5-fluoro-2-(1-(3-(3-fluoro-4-isopropoxyphenyl)-4-morpholino-1H-pyrazolo[3,4-d]pyrimidin-1-yl)ethyl)-3-(3-fluorophenyl)-4H-chromen-4-one] | % inhibition (PI3kδ) 100 nM (PI3kδ): D (D=0 to 25%); % inhibition (PI3kγ) 100 nM (PI3kγ; 0.1 µM): D (D=0 to 25%)
19 | 183 to 186 °C | 25 to 50% | 25 to 50% | C[C@H](Nc1nc(F)nc2[nH]cnc12)c1oc2cccc(F)c2c(=O)c1-c1cccc(F)c1 (racemic) [Example 136, (S)/(R)-5-fluoro-2-(1-(2-fluoro-9H-purin-6-ylamino)ethyl)-3-(3-fluorophenyl)-4H-chromen-4-one] | –
20 | 186 to 189 °C | 25 to 50% | 0 to 25% | COc1nc(N[C@@H](C)c2oc3cccc(F)c3c(=O)c2-c2cccc(F)c2)c2nc[nH]c2n1 (single isomer, unassigned) [Example 134] | –
21 | 219 to 222 °C | 25 to 50% | 25 to 50% | COc1nc(N[C@H](C)c2oc3cccc(F)c3c(=O)c2-c2cccc(F)c2)c2nc[nH]c2n1 (single isomer, unassigned) [Example 135] | –
22 | – | 25 to 50% | 0 to 25% | CC(=O)c1ccc(-c2nn(C(C)c3oc4cccc(F)c4c(=O)c3-c3cccc(F)c3)c3ncnc(N)c23)cc1F (centres unmarked) [Example 124, 2-(1-(3-(4-acetyl-3-fluorophenyl)-4-amino-1H-pyrazolo[3,4-d]pyrimidin-1-yl)ethyl)-5-fluoro-3-(3-fluorophenyl)-4H-chromen-4-one] | inhibition at 1 µM (PI3kα): 25 to 50%; inhibition at 1 µM (PI3kβ): 0 to 25%
23 | – | 50 to 75% | 25 to 50% | CC(c1oc2cccc(F)c2c(=O)c1-c1cccc(F)c1)n1nc(-c2cccc(NS(C)(=O)=O)c2)c2c(N)ncnc21 (centres unmarked) [Example 128, N-(3-(4-amino-1-(1-(5-fluoro-3-(3-fluorophenyl)-4-oxo-4H-chromen-2-yl)ethyl)-1H-pyrazolo[3,4-d]pyrimidin-3-yl)phenyl)methanesulfonamide] | inhibition at 1 µM (PI3kα): 25 to 50%; inhibition at 1 µM (PI3kβ): 50 to 75%; IC50 (PI3kδ): 50 to 100 nM; IC50 (PI3kγ): 50 to 100 nM
24 | 275 to 277 °C | – | – | Cc1ccccc1-c1c(C(C)Nc2ncnc3[nH]cnc23)oc2cccc(F)c2c1=O (centres unmarked) [Example 138, 2-(1-(9H-purin-6-ylamino)ethyl)-5-fluoro-3-o-tolyl-4H-chromen-4-one] | –
